These results are taken from patent US20110224210A1, “NOVEL BIS-AMIDES AS ANTI-MALARIAL AGENTS” (priority 2008, published 2011).

The structures appear in SMILES notation.

This test concerns P. falciparum K1 (strain resistant to chloroquine and pyrimethamine), erythrocytic stages. The experiment in a line: Plasmodium falciparum in vitro assay, [3H] hypoxanthine incorporation. The format is cell-based. The settings on record: Plasmodium falciparum, K1, P. falciparum strain K1; [3H] hypoxanthine incorporation; read-out: IC50 (nM) on K1. In outline:
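K1 strain parasites grown in human red cells, 2.5% haematocrit, 0.3% parasitaemia, 37 °C, 4% CO2/3% O2; compounds in seven serial doubling dilutions.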
In general, IC50 refers to the concentration that inhibits the measured activity by half. Consider `Cc1ccc(C=CC(=O)N(Cc2ccc(-c3ccncc3)cc2)[C@@H](Cc2ccccc2)C(=O)N2CCC(N(C)C)CC2)nc1` [Example 28, (S)-N-[1-Benzyl-2-(4-dimethylamino-piperidin-1-yl)-2-oxo-ethyl]-3-(5-methyl-pyridin-2-yl)-N-(4-pyridin-4-yl-benzyl)-acrylamide], for which the IC50 came out at 81 nM. As for `CN(C)CC1CCN(C(=O)[C@H](Cc2ccccc2)N(Cc2ccc(-c3ccccn3)cc2)C(=O)C=Cc2ccc(C(F)(F)F)nc2)CC1` [Example 51, (S)-N-[1-Benzyl-2-(4-dimethylaminomethyl-piperidin-1-yl)-2-oxo-ethyl]-N-(4-pyridin-2-yl-benzyl)-3-(6-trifluoromethyl-pyridin-3-yl)-acrylamide], the IC50 was found to be 90 nM. In the case of `CC(=O)N1CCN(c2ccc(CN(C(=O)C=Cc3ccc(C(F)(F)F)nc3)[C@@H](Cc3ccccc3)C(=O)N(C)CCOCC#N)cc2)CC1` [Example 217, (S)-N-[4-(4-Acetyl-piperazin-1-yl)-benzyl]-N-{1-[(2-cyanomethoxy-ethyl)-methyl-carbamoyl]-2-phenyl-ethyl}-3-(6-trifluoromethyl-pyridin-3-yl)-acrylamide] it was 32 nM. On to `Cc1c(C=CC(=O)N(Cc2ccc(-c3cncnc3)cc2)[C@@H](Cc2ccccc2)C(=O)N2CCC(N(C)C)CC2)cnn1C` [Example 43, (S)-N-[1-Benzyl-2-(4-dimethylamino-piperidin-1-yl)-2-oxo-ethyl]-3-(1,5-dimethyl-1H-pyrazol-4-yl)-N-(4-pyrimidin-5-yl-benzyl)-acrylamide], for which the IC50 came out at 354 nM. Take `C=CCOCCN(C)C(=O)[C@H](Cc1ccccc1)N(Cc1ccc(N2CCN(C(C)=O)CC2)cc1)C(=O)C=Cc1ccc(C(F)(F)F)nc1` [Example 218, (S)-N-[4-(4-Acetyl-piperazin-1-yl)-benzyl]-N-{1-[(2-allyloxy-ethyl)-methyl-carbamoyl]-2-phenyl-ethyl}-3-(6-trifluoromethyl-pyridin-3-yl)-acrylamide]: the IC50 is 40 nM. Regarding `COCCN(C)C(=O)[C@H](Cc1ccccc1)N(Cc1ccc(N2CCOCC2)cc1)C(=O)C=Cc1cnc(C)n1C` [Example 61, (S)-3-(2,3-Dimethyl-3H-imidazol-4-yl)-N-{1-[(2-methoxy-ethyl)-methyl-carbamoyl]-2-phenyl-ethyl}-N-(4-morpholin-4-yl-benzyl)-acrylamide], the IC50 was 464 nM. For `CN(C)C1CCN(C(=O)[C@H](Cc2ccccc2)N(Cc2ccc(-c3ccncc3)cc2)C(=O)C=Cc2ccn(C)n2)CC1` [Example 19, (S)-N-[1-Benzyl-2-(4-dimethylamino-piperidin-1-yl)-2-oxo-ethyl]-3-(1-methyl-1H-pyrazol-3-yl)-N-(4-pyridin-4-yl-benzyl)-acrylamide], the IC50 came out at 250 nM. With `COCCN(C)C(=O)[C@H](Cc1ccccc1)N(Cc1ccc(-c2ccccn2)cc1)C(=O)C=Cc1ccc(C)nc1` [Example 84, (S)-N-{1-[(2-Methoxy-ethyl)-methyl-carbamoyl]-2-phenyl-ethyl}-3-(6-methyl-pyridin-3-yl)-N-(4-pyridin-2-yl-benzyl)-acrylamide], the IC50 came to 27 nM. `O=C(NCCN1CCCCC1)[C@H](Cc1ccccc1)N(Cc1ccc(-c2ccccn2)cc1)C(=O)C=Cc1ccc(C(F)(F)F)cc1` [Example 153]: the IC50 amounted to 268 nM. For the compound `Cc1cc(C=CC(=O)N(Cc2ccc(-c3ccncc3)cc2)[C@@H](Cc2ccccc2)C(=O)N2CCC(N(C)C)CC2)n(C)n1` [Example 20, (S)-N-[1-Benzyl-2-(4-dimethylamino-piperidin-1-yl)-2-oxo-ethyl]-3-(2,5-dimethyl-2H-pyrazol-3-yl)-N-(4-pyridin-4-yl-benzyl)-acrylamide], the IC50 came out at 116 nM. Regarding `COCCN(C)C(=O)[C@H](Cc1ccccc1)N(Cc1ccc(N2CCOCC2)cc1)C(=O)C=Cc1c(C)noc1C` [Example 64, (S)-3-(3,5-Dimethyl-isoxazol-4-yl)-N-{1-[(2-methoxy-ethyl)-methyl-carbamoyl]-2-phenyl-ethyl}-N-(4-morpholin-4-yl-benzyl)-acrylamide], the half-maximal inhibitory concentration (IC50) was determined as 180 nM.
